Reference: patent US11450805B2, “Compound, semiconductor material, and methods for manufacturing coating and semiconductor using the same” (Merck Patent GmbH, priority 2016, dated 2022)

Test: Evaluation of solubility of solute in solvents (visual inspection)
Format: physicochemical
Conditions: stirring at room temperature for 60 minutes; for Solubility, solvent PGME:EL = 7:3: PGME:EL = 7:3 volume ratio; for Solubility, solvent PGME:PGMEA = 7:3: PGME:PGMEA = 7:3 volume ratio
Method: Comparative compound 1 was added as a solute to each of the various solvents listed in Table 1 in an amount of 10% by mass, and mixed with the solvent by stirring at room temperature for 60 minutes. When 10% by mass of the solute was not fully dissolved in the solvent, the amount of the solute added was changed to 1% by mass, and 1% by mass of the solute was mixed with the solvent in the same manner as above.
The state of dissolution of the solute was visually inspected and evaluated as follows.
A: Even when the amount of the solute mixed with the solvent was 10% by mass, the solute was fully dissolved.
B: When the amount of the solute mixed with the solvent was 10% by mass, the solute was not fully dissolved and some of it remained undissolved, while when the amount of the solute mixed with the solvent was 1% by mass, the solute was fully dissolved.
C: Even when the amount of the solute mixed with the solvent was 1% by mass, the solute was not fully dissolved and some of it remained undissolved.
Experiments were conducted in the same manner as above, except for changing the solute from comparative compound 1 to other compounds listed in Table 1.

Compound	Solubility, solvent PGME:EL = 7:3	Solubility, solvent PGME:PGMEA = 7:3	Solubility, solvent PGME
Oc1ccc(-c2c(-c3ccccc3)c(-c3ccccc3)c(-c3c(-c4ccccc4)c(-c4c(-c5ccccc5)c(-c5ccccc5)c(-c5ccc(O)cc5)c(-c5ccc(O)cc5)c4-c4ccccc4)c(-c4ccccc4)c(-c4c(-c5ccccc5)c(-c5ccccc5)c(-c5ccc(O)cc5)c(-c5ccc(O)cc5)c4-c4ccccc4)c3-c3ccccc3)c(-c3ccccc3)c2-c2ccc(O)cc2)cc1 [G7]	B (When the amount of the solute mixed with the solvent was 10% by mass, the solute was not fully dissolved and some of it remained undissolved, while when the amount of the solute mixed with the solvent was 1% by mass, the solute was fully dissolved.)	B (When the amount of the solute mixed with the solvent was 10% by mass, the solute was not fully dissolved and some of it remained undissolved, while when the amount of the solute mixed with the solvent was 1% by mass, the solute was fully dissolved.)	A (Even when the amount of the solute mixed with the solvent was 10% by mass, the solute was fully dissolved.)
Oc1ccc(-c2c(-c3ccc(O)cc3)c(-c3ccc(O)cc3)c(-c3ccc(O)cc3)c(-c3ccc(O)cc3)c2-c2ccc(O)cc2)cc1 [G5]	A (Even when the amount of the solute mixed with the solvent was 10% by mass, the solute was fully dissolved.)	A (Even when the amount of the solute mixed with the solvent was 10% by mass, the solute was fully dissolved.)	A (Even when the amount of the solute mixed with the solvent was 10% by mass, the solute was fully dissolved.)
c1ccc(-c2c(-c3ccccc3)c(-c3ccccc3)c(-c3ccc(-c4c(-c5ccccc5)c(-c5ccccc5)c(-c5ccccc5)c(-c5ccccc5)c4-c4ccccc4)cc3)c(-c3ccccc3)c2-c2ccccc2)cc1 [Comparative compound 1, reference compound]	C (Even when the amount of the solute mixed with the solvent was 1% by mass, the solute was not fully dissolved and some of it remained undissolved.)	C (Even when the amount of the solute mixed with the solvent was 1% by mass, the solute was not fully dissolved and some of it remained undissolved.)	C (Even when the amount of the solute mixed with the solvent was 1% by mass, the solute was not fully dissolved and some of it remained undissolved.)
Oc1ccc(-c2c(-c3ccccc3)cc(-c3ccc(-c4cc(-c5ccccc5)c(-c5ccc(O)cc5)c(-c5ccc(O)cc5)c4-c4ccccc4)cc3)c(-c3ccccc3)c2-c2ccc(O)cc2)cc1 [G3]	A (Even when the amount of the solute mixed with the solvent was 10% by mass, the solute was fully dissolved.)	A (Even when the amount of the solute mixed with the solvent was 10% by mass, the solute was fully dissolved.)	A (Even when the amount of the solute mixed with the solvent was 10% by mass, the solute was fully dissolved.)
Oc1ccc(-c2c(-c3ccccc3)c(-c3ccccc3)c(-c3ccc(-c4c(-c5ccccc5)c(-c5ccccc5)c(-c5ccc(O)cc5)c(-c5ccc(O)cc5)c4-c4ccccc4)cc3)c(-c3ccccc3)c2-c2ccc(O)cc2)cc1 [G1]	A (Even when the amount of the solute mixed with the solvent was 10% by mass, the solute was fully dissolved.)	A (Even when the amount of the solute mixed with the solvent was 10% by mass, the solute was fully dissolved.)	A (Even when the amount of the solute mixed with the solvent was 10% by mass, the solute was fully dissolved.)
Oc1ccc(-c2c(-c3ccccc3)c(-c3ccccc3)c(-c3c4ccccc4c(-c4c(-c5ccccc5)c(-c5ccccc5)c(-c5ccc(O)cc5)c(-c5ccc(O)cc5)c4-c4ccccc4)c4ccccc34)c(-c3ccccc3)c2-c2ccc(O)cc2)cc1 [G2]	A (Even when the amount of the solute mixed with the solvent was 10% by mass, the solute was fully dissolved.)	A (Even when the amount of the solute mixed with the solvent was 10% by mass, the solute was fully dissolved.)	A (Even when the amount of the solute mixed with the solvent was 10% by mass, the solute was fully dissolved.)
COc1ccc(-c2c(-c3ccccc3)c(-c3ccccc3)c(-c3ccc(-c4c(-c5ccccc5)c(-c5ccccc5)c(-c5ccc(OC)cc5)c(-c5ccc(OC)cc5)c4-c4ccccc4)cc3)c(-c3ccccc3)c2-c2ccc(OC)cc2)cc1 [Intermediate G0, reference compound]	C (Even when the amount of the solute mixed with the solvent was 1% by mass, the solute was not fully dissolved and some of it remained undissolved.)	C (Even when the amount of the solute mixed with the solvent was 1% by mass, the solute was not fully dissolved and some of it remained undissolved.)	C (Even when the amount of the solute mixed with the solvent was 1% by mass, the solute was not fully dissolved and some of it remained undissolved.)
Nc1ccc(-c2c(-c3ccccc3)c(-c3ccccc3)c(-c3ccccc3)c(-c3ccccc3)c2-c2ccc(N)cc2)cc1 [G8]	A (Even when the amount of the solute mixed with the solvent was 10% by mass, the solute was fully dissolved.)	A (Even when the amount of the solute mixed with the solvent was 10% by mass, the solute was fully dissolved.)	A (Even when the amount of the solute mixed with the solvent was 10% by mass, the solute was fully dissolved.)
Oc1ccc(-c2c(-c3ccccc3)c(-c3ccccc3)c(-c3ccc(-c4ccc(-c5c(-c6ccccc6)c(-c6ccccc6)c(-c6ccc(O)cc6)c(-c6ccc(O)cc6)c5-c5ccccc5)cc4)cc3)c(-c3ccccc3)c2-c2ccc(O)cc2)cc1 [G6]	A (Even when the amount of the solute mixed with the solvent was 10% by mass, the solute was fully dissolved.)	A (Even when the amount of the solute mixed with the solvent was 10% by mass, the solute was fully dissolved.)	A (Even when the amount of the solute mixed with the solvent was 10% by mass, the solute was fully dissolved.)
